Assays:
[1] = tested on: barnyardgrass; assay: Test C preemergence; format: in vivo, Echinochloa crusgalli
Procedure, shortened: (§1)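 Test material, in non-phytotoxic solvent with surfactant, was sprayed on the soil directly after seeding (preemergence) or on young plants of 2–10 cm with one to two leaves (postemergence). Greenhouse, 10 days; 0–100 visual control scale.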

[2] = tested on: blackgrass; assay: Test C preemergence; format: in vivo, Alopecurus myosuroides
Procedure, shortened: as §1

[3] = tested on: corn; assay: Test C preemergence; format: in vivo, Zea mays; conditions: Preemergence, 125 g ai/ha; 0 to 100 scale, 0 no effect, 100 complete control
Procedure, shortened: as §1

[4] = tested on: foxtail, giant; assay: Test C preemergence; format: in vivo, Setaria faberi
Procedure, shortened: as §1

[5] = tested on: kochia; assay: Test C preemergence; format: in vivo, Bassia scoparia
Procedure, shortened: as §1

[6] = tested on: oat, wild; assay: Test C preemergence; format: in vivo, Avena fatua
Procedure, shortened: as §1

[7] = tested on: pigweed, palmer; assay: Test C preemergence; format: in vivo, Amaranthus palmeri
Procedure, shortened: as §1

[8] = tested on: ragweed; assay: Test C preemergence; format: in vivo, Ambrosia artemisiifolia
Procedure, shortened: as §1

[9] = tested on: ryegrass, Italian; assay: Test C preemergence; format: in vivo, Lolium multiflorum
Procedure, shortened: as §1

[10] = tested on: soybean; assay: Test C preemergence; format: in vivo, Glycine max
Procedure, shortened: as §1

[11] = tested on: wheat; assay: Test C preemergence; format: in vivo, Triticum aestivum
Procedure, shortened: as §1

[12] = tested on: barnyardgrass; assay: Test C postemergence; format: in vivo, Echinochloa crusgalli; conditions: 10 days, 0 to 100 scale (0 no effect, 100 complete control)
Procedure, shortened: as §1

[13] = tested on: blackgrass; assay: Test C postemergence; format: in vivo, Alopecurus myosuroides; conditions: 10 days, 0 to 100 scale (0 no effect, 100 complete control)
Procedure, shortened: as §1

[14] = tested on: corn; assay: Test C postemergence; format: in vivo, Zea mays; conditions: 10 days, 0 to 100 scale (0 no effect, 100 complete control)
Procedure, shortened: as §1

[15] = tested on: foxtail, giant; assay: Test C postemergence; format: in vivo, Setaria faberi; conditions: 10 days, 0 to 100 scale (0 no effect, 100 complete control)
Procedure, shortened: as §1

[16] = tested on: kochia; assay: Test C postemergence; format: in vivo, Bassia scoparia; conditions: 10 days, 0 to 100 scale (0 no effect, 100 complete control)
Procedure, shortened: as §1

[17] = tested on: oat, wild; assay: Test C postemergence; format: in vivo, Avena fatua; conditions: 10 days, 0 to 100 scale (0 no effect, 100 complete control)
Procedure, shortened: as §1

[18] = tested on: pigweed, palmer; assay: Test C postemergence; format: in vivo, Amaranthus palmeri; conditions: 10 days, 0 to 100 scale (0 no effect, 100 complete control)
Procedure, shortened: as §1

[19] = tested on: ragweed; assay: Test C postemergence; format: in vivo, Ambrosia artemisiifolia; conditions: 10 days, 0 to 100 scale (0 no effect, 100 complete control)
Procedure, shortened: as §1

[20] = tested on: ryegrass, Italian; assay: Test C postemergence; format: in vivo, Lolium multiflorum; conditions: 10 days, 0 to 100 scale (0 no effect, 100 complete control)
Procedure, shortened: as §1

[21] = tested on: soybean; assay: Test C postemergence; format: in vivo, Glycine max; conditions: 10 days, 0 to 100 scale (0 no effect, 100 complete control)
Procedure, shortened: as §1

[22] = tested on: wheat; assay: Test C postemergence; format: in vivo, Triticum aestivum; conditions: 10 days, 0 to 100 scale (0 no effect, 100 complete control)
Procedure, shortened: as §1

[23] = tested on: galium; assay: Test C postemergence; format: in vivo, Galium aparine; conditions: 10 days, 0 to 100 scale (0 no effect, 100 complete control)
Procedure, shortened: as §1

[24] = tested on: horseweed; assay: Test C postemergence; format: in vivo, Erigeron canadensis; conditions: 10 days, 0 to 100 scale (0 no effect, 100 complete control)
Procedure, shortened: as §1

[25] = tested on: barnyardgrass; assay: Test D flooded paddy test; format: in vivo, Echinochloa crus-galli; conditions: 250 g ai/ha, applied to paddy water, visual rating after 13 to 14 days, scale 0 to 100 (0 no effect, 100 complete control)
Procedure, shortened: (§2)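 Visual ratings from 0, meaning no effect, to 100, meaning complete control, were assigned against untreated controls 13 to 14 days after compounds were added to the floodwater of pots kept 3 cm deep, with plants at the 2-leaf stage.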

[26] = tested on: ducksalad; assay: Test D flooded paddy test; format: in vivo, Heteranthera limosa; conditions: 250 g ai/ha, applied to paddy water, visual rating after 13 to 14 days, scale 0 to 100 (0 no effect, 100 complete control)
Procedure, shortened: as §2

[27] = tested on: rice; assay: Test D flooded paddy test; format: in vivo, Oryza sativa; conditions: 250 g ai/ha, applied to paddy water, visual rating after 13 to 14 days, scale 0 to 100 (0 no effect, 100 complete control)
Procedure, shortened: as §2

[28] = tested on: sedge, umbrella; assay: Test D flooded paddy test; format: in vivo, Cyperus difformis; conditions: 250 g ai/ha, applied to paddy water, visual rating after 13 to 14 days, scale 0 to 100 (0 no effect, 100 complete control)
Procedure, shortened: as §2

[29] = 500 g ai/ha, preemergence, 0 to 100 scale (0 no effect, 100 complete control)
[30] = Preemergence, 125 g ai/ha, 0 to 100 scale, 0 no effect, 100 complete control

COc1ccc(-n2cnc(C3CC3)n2)cc1C(=O)N1C[C@H](C)Oc2c(Cl)cccc21 [Compound 324]
Barnyardgrass plant response rating [1, 29]: 100 | Plant response rating, Barnyardgrass [1, 30]: 90 | Blackgrass plant response rating [2, 29]: 90 | Plant response rating, Blackgrass [2, 30]: 70 | Plant response rating, Corn [3]: 0 | Foxtail, Giant plant response rating [4, 29]: 100 | Plant response rating, Foxtail, Giant [4, 30]: 90 | Kochia plant response rating [5, 29]: 90 | Plant response rating, Kochia [5, 30]: 90 | Oat, Wild plant response rating [6, 29]: 90 | Plant response rating, Oat, Wild [6, 30]: 0 | Pigweed, Palmer plant response rating [7, 29]: 100 | Plant response rating, Pigweed, Palmer [7, 30]: 100 | Ragweed plant response rating [8, 29]: 90 | Plant response rating, Ragweed [8, 30]: 50 | Ryegrass, Italian plant response rating [9, 29]: 100 | Plant response rating, Ryegrass, Italian [9, 30]: 80 | Soybean plant response rating [10, 29]: 90 | Plant response rating, Soybean [10, 30]: 100 | Wheat plant response rating [11, 29]: 90 | Plant response rating, Wheat [11, 30]: 10 | Plant response rating, Barnyardgrass ([12]; 500 g ai/ha, postemergence): 80 | Plant response rating, Barnyardgrass ([12]; Postemergence, 125 g ai/ha): 50 | Plant response rating, Blackgrass ([13]; 500 g ai/ha, postemergence): 90 | Plant response rating, Blackgrass ([13]; Postemergence, 125 g ai/ha): 90 | Plant response rating, Corn ([14]; 500 g ai/ha, postemergence): 90 | Plant response rating, Corn ([14]; Postemergence, 125 g ai/ha): 70 | Plant response rating, Foxtail, Giant ([15]; 500 g ai/ha, postemergence): 90 | Plant response rating, Foxtail, Giant ([15]; Postemergence, 125 g ai/ha): 80 | Plant response rating, Kochia ([16]; 500 g ai/ha, postemergence): 100 | Plant response rating, Kochia ([16]; Postemergence, 125 g ai/ha): 90 | Plant response rating, Oat, Wild ([17]; 500 g ai/ha, postemergence): 70 | Plant response rating, Oat, Wild ([17]; Postemergence, 125 g ai/ha): 10 | Plant response rating, Pigweed, Palmer ([18]; 500 g ai/ha, postemergence): 100 | Plant response rating, Pigweed, Palmer ([18]; Postemergence, 125 g ai/ha): 90 | Plant response rating, Ragweed ([19]; 500 g ai/ha, postemergence): 70 | Plant response rating, Ragweed ([19]; Postemergence, 125 g ai/ha): 60 | Plant response rating, Ryegrass, Italian ([20]; 500 g ai/ha, postemergence): 50 | Plant response rating, Ryegrass, Italian ([20]; Postemergence, 125 g ai/ha): 40 | Plant response rating, Soybean ([21]; 500 g ai/ha, postemergence): 100 | Plant response rating, Soybean ([21]; Postemergence, 125 g ai/ha): 100 | Plant response rating, Wheat ([22]; 500 g ai/ha, postemergence): 30 | Plant response rating, Wheat ([22]; Postemergence, 125 g ai/ha): 30 | Plant response rating, Galium ([23]; 500 g ai/ha, postemergence): 100 | Plant response rating, Galium ([23]; Postemergence, 125 g ai/ha): 100 | Plant response rating, Horseweed ([24]; 500 g ai/ha, postemergence): 80 | Plant response rating, Horseweed ([24]; Postemergence, 125 g ai/ha): 60 | Plant response rating, Barnyardgrass (Flood) [25]: 40 | Plant response rating, Ducksalad (Flood) [26]: 80 | Plant response rating, Rice (Flood) [27]: 10 | Plant response rating, Sedge, Umbrella (Flood) [28]: 98
